Read-outs that look alike come from different tables or passages of the source.
Assays:
[1] = test system: metastatic or surgically unresectable urothelial cancer harboring select FGFR genetic alterations; conditions: for ORR, BIRC assessment / ORR, investigator assessment: chemotherapy-refractory patients in Regimen 3
Excerpt: The study comprises a Screening Phase (molecular screening at any time prior to first dose and study screening within 30 days of first dose), a treatment phase, and a post-treatment follow-up phase. The treatment phase comprises the period from first dose until the end-of-treatment visit. The follow-up phase extends until the subject has died, withdraws consent, is lost to follow-up, or the end of study, whichever comes first.
Included patients were adults with measurable urothelial cancer per Response Evaluation Criteria in Solid Tumors version 1.1.
Patients were required to have at least 1 FGFR2/FGFR3 mutation or fusion per central lab testing of RNA from formalin-fixed, paraffin-embedded tumor samples, using a custom reverse transcriptase polymerase chain reaction assay.
The primary end point of this study is Objective Response Rate to the selected regimen (Regimen 3).
Secondary end points include progression-free survival (PFS), response duration, Overall Survival, safety, response rate in biomarker-specific subgroups, and pharmacokinetics.
The study was designed to enroll 180 patients with specified FGFR alterations. Of these, ≥88 were required in the selected regimen. […] Responses were assessed by investigators and an independent radiological review committee. Progression-free survival and overall survival were estimated using Kaplan-Meier product limit method. Data from patients who were progression free and alive or with unknown status were censored at last tumor assessment. Efficacy end points were analysed at primary analysis cut-off.

[2] = 187 patients with cancer; large effect i.e. >20 ms
[3] = human, in vivo
serum phosphate = experiment: Pharmacodynamics: serum phosphate level; assay type: in vivo, human; conditions: consequence of FGFR inhibition
Excerpt: To manage phosphate elevation, phosphate binders were permitted. Avoid concomitant use with agents that can alter serum phosphate levels before the initial dose increase period based on serum phosphate levels.

in vitro = in vitro ADME; conditions: human
[4] = Effect of food (high-fat and high-calorie meal) on pharmacokinetics in healthy subjects; assay type: in vivo, human
[5] = Excretion following a single oral dose of radiolabeled erdafitinib; assay type: in vivo, human
[6] = Pharmacokinetics in specific populations; assay type: in vivo, human; conditions: age 21-88 years, sex, race, body weight 36-132 kg, mild or moderate renal impairment, mild hepatic impairment
clinical = conditions: human, in vivo
[7] = Chemotherapy-refractory patients in Regimen 3 (N = 87)
[8] = Regimen 1, 10 mg intermittent (n = 33)
[9] = Regimen 2, 6 mg continuous (n = 78)
[10] = Regimen 3, of 97 patients with ≥1 postbaseline disease evaluation

COc1cc(OC)cc(N(CCNC(C)C)c2ccc3ncc(-c4cnn(C)c4)nc3c2)c1 [erdafitinib, N-(3,5-dimethoxy-phenyl)-N′-(1-methylethyl)-N-[3-(1-methyl-1H-pyrazol-4-yl)quinoxalin-6-yl]ethane-1,2-diamine]
Objective response rate per investigator assessment ([1]; 8 mg non-uptitrated continuous dose regimen, Regimen 3): (34.5) %
Objective response rate per investigator assessment ([1]; 8 mg uptitrated to 9 mg continuous dose regimen, Regimen 3): (48.8) %
Objective response rate per investigator assessment ([1]; Bone metastases, Regimen 1, 10 mg intermittent): (17) %
Objective response rate per investigator assessment ([1]; Bone metastases, Regimen 2, 6 mg continuous): (40) %
Objective response rate per investigator assessment ([1]; Bone metastases, Regimen 3, 8 mg continuous): (31.8) %
Objective response rate per investigator assessment ([1]; Chemotherapy-naïve, Regimen 1, 10 mg intermittent): (25) %
Objective response rate per investigator assessment ([1]; Chemotherapy-naïve, Regimen 2, 6 mg continuous): (0) %
Objective response rate per investigator assessment ([1]; Chemotherapy-naïve, Regimen 3, 8 mg continuous): (41.7) %
Complete response (CR), investigator assessment [1, 7]: 3.4%
Partial response (PR), investigator assessment [1, 7]: 36.8%
ORR, BIRC assessment ([1]; FGFR2 Fusion (N = 6)): 0%
ORR, BIRC assessment ([1]; FGFR3 Fusion (N = 18)): 11.1%
ORR, BIRC assessment ([1]; FGFR3 Point Mutation (N = 64)): 40.6%
ORR, investigator assessment ([1]; FGFR3 Point Mutation (N = 64)): 48.4%
ORR, investigator assessment ([1]; FGFR Fusion (N = 23)): 17.4%
Objective response rate per investigator assessment ([1]; Liver metastases, Regimen 1, 10 mg intermittent): (27) %
Objective response rate per investigator assessment ([1]; Liver metastases, Regimen 2, 6 mg continuous): (24) %
Objective response rate per investigator assessment ([1]; Liver metastases, Regimen 3, 8 mg continuous): (35.0) %
Objective response rate per investigator assessment ([1]; Lower tract disease, Regimen 1, 10 mg intermittent): (9) %
Objective response rate per investigator assessment ([1]; Lower tract disease, Regimen 2, 6 mg continuous): (39) %
Objective response rate per investigator assessment ([1]; Lower tract disease, Regimen 3, 8 mg continuous): (39.5) %
Objective response rate per investigator assessment ([1]; Lung metastases, Regimen 1, 10 mg intermittent): (27) %
Objective response rate per investigator assessment ([1]; Lung metastases, Regimen 2, 6 mg continuous): (41) %
Objective response rate per investigator assessment ([1]; Lung metastases, Regimen 3, 8 mg continuous): (40.4) %
Objective response rate per investigator assessment ([1]; Lymph node metastases only, Regimen 1, 10 mg intermittent): (0) %
Objective response rate per investigator assessment ([1]; Lymph node metastases only, Regimen 2, 6 mg continuous): (67) %
Objective response rate per investigator assessment ([1]; Lymph node metastases only, Regimen 3, 8 mg continuous): (33.3) %
Objective response rate per investigator assessment ([1]; No. of lines of prior systemic therapy 0, Regimen 3, 8 mg continuous): (36.4) %
Objective response rate per investigator assessment ([1]; No. of lines of prior systemic therapy 1, Regimen 3, 8 mg continuous): (37.8) %
Objective response rate per investigator assessment ([1]; No. of lines of prior systemic therapy 2, Regimen 3, 8 mg continuous): (37.9) %
Objective response rate per investigator assessment ([1]; No. of lines of prior systemic therapy 3, Regimen 3, 8 mg continuous): (60.0) %
Objective response rate per investigator assessment ([1]; No. of lines of prior systemic therapy ≥4, Regimen 3, 8 mg continuous): (50.0) %
Objective response rate per investigator assessment ([1]; Progressed or relapsed after chemotherapy, Regimen 1, 10 mg intermittent): (21) %
Objective response rate per investigator assessment ([1]; Progressed or relapsed after chemotherapy, Regimen 2, 6 mg continuous): (37) %
Objective response rate per investigator assessment ([1]; Progressed or relapsed after chemotherapy, Regimen 3, 8 mg continuous): (40.2) %
Median progression-free survival per investigator assessment ([1]; Regimen 1): 4.8 months
Overall survival rate at 12 months ([1]; Regimen 1): 31%
Progression-free survival rate at 12 months ([1]; Regimen 1): 18%
Complete response per investigator assessment [1, 8]: 1 no.
Median time to response [1, 8]: 1.4 mo
Median overall survival ([1]; Regimen 1, median follow-up 22.9 months): 7.5 months
Median progression-free survival per investigator assessment ([1]; Regimen 2): 5.3 months
Overall survival rate at 12 months ([1]; Regimen 2): 33%
Progression-free survival rate at 12 months ([1]; Regimen 2): 11%
Complete response per investigator assessment [1, 9]: 3 no.
Median time to response [1, 9]: 1.4 mo
Median overall survival ([1]; Regimen 2, median follow-up 18.5 months): 8.6 months
Responses maintained for >12 months ([1]; Regimen 3): roughly 30%
Survival rate at 12 months ([1]; Regimen 3): 55%
Median time to response ([1]; Regimen 3, 8 mg continuous (n = 99)): 1.4 mo
Median progression-free survival ([1]; Regimen 3, 8 mg per day continuous (FIG. 5A)): 5.5 months
Median overall survival ([1]; Regimen 3, 8 mg per day continuous (FIG. 5B)): 13.8 months
Patients who responded ([1]; Regimen 3, FGFR3-TACC3 V1 fusion (n=11)): 36.4%
Disease stabilization lasting >6 months ([1]; Regimen 3, among 39 patients with stable disease): 33%
Additional patients with stable disease ([1]; Regimen 3, patients with FGFR mutations (n=74)): 26 patients
Progression-free survival rate at 12 months ([1]; Regimen 3, per investigator assessment): 19%
Patients with maximum tumor reduction between 30% and 100% [1, 10]: 49%
Patients with reduction in sum of target lesion diameters [1, 10]: 77%
Objective response rate per investigator assessment ([1]; Upper tract disease, Regimen 1, 10 mg intermittent): (46) %
Objective response rate per investigator assessment ([1]; Upper tract disease, Regimen 2, 6 mg continuous): (23) %
Objective response rate per investigator assessment ([1]; Upper tract disease, Regimen 3, 8 mg continuous): (43.5) %
Objective response rate per investigator assessment ([1]; With FGFR2/3 fusions, Regimen 1, 10 mg intermittent): (0) %
Objective response rate per investigator assessment ([1]; With FGFR2/3 fusions, Regimen 2, 6 mg continuous): (17) %
Objective response rate per investigator assessment ([1]; With FGFR3 mutations, Regimen 1, 10 mg intermittent): (22) %
Objective response rate per investigator assessment ([1]; With FGFR3 mutations, Regimen 2, 6 mg continuous): (36) %
Objective response rate per investigator assessment ([1]; With visceral metastases, Regimen 1, 10 mg intermittent): (29) %
Objective response rate per investigator assessment ([1]; With visceral metastases, Regimen 2, 6 mg continuous): (32) %
Objective response rate per investigator assessment ([1]; With visceral metastases, Regimen 3, 8 mg continuous): (38.5) %
Objective response rate per investigator assessment ([1]; Without visceral metastases, Regimen 1, 10 mg intermittent): (0) %
Objective response rate per investigator assessment ([1]; Without visceral metastases, Regimen 2, 6 mg continuous): (42) %
Objective response rate per investigator assessment ([1]; Without visceral metastases, Regimen 3, 8 mg continuous): (47.6) %
Effect on the QTc interval [2]: no large effect
Circulating metabolites in plasma [3]: no circulating metabolites
Exposure (Cmax and AUC) versus dose [3]: increased proportionally
Mean total apparent clearance (CL/F) [3]: 0.362 L/h
Time to steady state [3]: 2 weeks
Effect on serum phosphate level (serum phosphate): increased serum phosphate level
fraction unbound (in vitro): 0.002
Effect of food on erdafitinib pharmacokinetics [4]: No clinically meaningful differences
Dose recovered in feces [5]: approximately 69%
Dose recovered in feces as unchanged [5]: 19%
Dose recovered in urine [5]: 19%
Dose recovered in urine as unchanged [5]: 13%
Trends in pharmacokinetics in specific populations [6]: No clinically meaningful trends
Vd (clinical): 29 L
half-life (clinical): 59 h
